Structures can show the parent of a compound that is named as a salt.
Legend:
Format in all cases: in vivo
obese hyperglycemia mice = assay: Body weight and blood glucose of obese hyperglycemia mice
Method: 9-week-old obese mice of hyperglycemia were randomly divided into: rhein sodium group, non-treatment group, rosiglitazone group, rhein lysine high-dose group and low-dose group, each group has 6 mice. Kunming mice of the same age were used as the control group, which were fed by conventional feedstuff with free food and water feeding. Rhein lysine conjugates [the dose is 180 mg/kg (0.418 mmol/kg) and 90 mg/kg (0.209 mmol/kg) for intragastric infusion, prepared with distilled water], dose of the rhein sodium group is 130 mg/kg (0.424 mmol/kg), the mixture was dissolved with distilled water, intragastric administration; rosiglitazone group (the dose is 4 mg/kg), the mixture was dissolved with distilled water, intragastric administration, and the rats of the other two groups were administered with the same volume of distilled water, once a day, 12 weeks of administration in succession. The animals' body weight and blood sugar were measured regularly, and statistical analysis was conducted.

mice [1] = assay: Capillary permeability of mice; settings: dosage 12 mg/kg
Method: Each group has 12 mice, administration: 0.20 ml/10 g. Mice in the model control group were administrated with isovolumic physiologic saline.

rats [2] = assay: Formation of cotton ball granuloma in rats (Example 59 Test 2); settings: 12 mg/kg intragastric, two weeks
Method: Rats were randomly divided into five groups (model control group, indomethacin group, rhein glucosamine large dose group and low dose group and rhein sodium group). Each group included 10 rats, and built models according to the method in the literature [Xu Shuyun, Methodology in Pharmacological Experiment (the 3rd version): 918]. The rats were administered by medicines from the day when starting the operation. […] The rats were killed in two weeks, and tests were performed according to the methods in the literature, the net weight of granulation was calculated, and t test was used for the intergroup comparison.

mice [3] = assay: Intestinal propulsion in mice; settings: dosage 12 mg/kg, intravenous injection
Method: Fifty mice, male, weighting from 18 to 22 g, were randomly divided into five groups, namely, model control group, domperidone group, rhein sodium group, rhein glucosamine large dose group and low dose group.
Each group has 10 mice respectively. The mice were fasted, but water was not prohibited, and then administered with medicines by intravenous injection. After that, tests were carried on immediately according to the methods in the literature[Xu Shuyun, Methodology in Pharmacological Experiment (the 3rd version): 1313]. The intestinal propulsive rates were calculated, and t test was used for the intergroup comparison.

rats [4] = assay: Intestinal adhesion in rats; settings: 6 mg/kg once a day, 7th day
Method: Rats were fasted for 12 h and models were built according to the methods in the literature [Xu Shuyun, Methodology in Pharmacological Experiment (the 3rd version): 1335]. The rats were randomly divided into five groups, namely, model control group, dexamethasone group, rhein sodium group, rhein glucosamine large dose group and low dose group. Each group included 12 rats. […] The rats of the model group were administered with the same volume of NS, while the rats of the positive control group were administered with dexamethasone, administered once every two days, dose: 10 mg/kg. The administration volume was the same as the treatment group. The rats were killed on the 7th day and carried on laparotomy. Adhesion degree was classified and scored respectively. The classification and score of the observed index-adhesion degree can refer to the five-grade classification method prepared by Nair, and determine the classification standard, see Schedule 13. Intestinal adhesion classification adopts Ridit analysis. The test results are as follows (Table 14): […]

mice [5] = assay: Xylene-induced swelling of auricle in mice; settings: ig 40 mg/kg, 3 days
Method: Fifty male Kunming mice were selected, weighing 18-22 g each, and randomly divided into five groups, namely, model control group, aspirin group, rhein sodium group, rhein glucosamine large dose group and low dose groups. Each group had 10 mice respectively. The mice were administered with medicines by intragastric administration every day, for 0.2 ml/10 g body weight. The mice of the model control group were administered with equal volume of physiological saline, once every day, continuously administration for 3 days. After 60 minutes of the final administration, carried on test according to the method in the literature [Xu Shuyun, Methodology in Pharmacological Experiment (the 3rd version): 911]. The sweeling degree of auricle was calculated and statistical analysis was conducted.

rats [6] = assay: Formation of granuloma in rats (arthritis example, test 4); settings: 20 mg/kg intragastric, two weeks
Method: Rats were randomly divided into five groups (model control group, indomethacin group, rhein glucosamine large dose group and small dose group and rhein sodium group). Each group has 10 […]. According to the method in the literature [Xu Shuyun, Methodology in Pharmacological Experiment (the 3rd version): 918], the models were built, and the rats were administered with medicines since the day when starting operations. […] Two weeks later, the rats were killed and test was carried on according to the method in the literature. The net weight of granulation was calculated, and t test was used for the intergroup comparison.

mice [7] = assay: Acetic acid-induced writhing response in mice; settings: ig 40 mg/kg, 12 days
Method: Fifty Kunming mice, half male and half female, weighing 18-22 g each, were selected and randomly divided into five groups, namely, model control group, aspirin group, rhein sodium group, rhein glucosamine large dose group and small dose group, 10 mice for each group. The mice were administered with medicine by intragastric administration every day, 0.2 ml/10 g body weight, once every day, and administered for 12 days in succession. After the final administration of medicines, 30 minutes later, test was carried on according to the methods in the literature [Xu Shuyun, Methodology in Pharmacological Experiment (the 1st version): 882]. The inhibiting rate for writhing response was calculated.

[8] = baseline of group given ig 130 mg/kg once a day

With `O=C(O)c1cc(O)c2c(c1)C(=O)c1cccc(O)c1C2=O` [Rhein sodium salt, rhein sodium salt] the “Blood glucose prior to administration” value (obese hyperglycemia mice; [8]) was 28.9 ± 4.8 mmol/L, the “Body weight prior to administration” value (obese hyperglycemia mice; [8]) was 28.9 ± 1.8 g and the “Blood glucose 6 w after administration” value (obese hyperglycemia mice; ig 130 mg/kg once a day) was 31.2 ± 5.5 mmol/L. For the same molecule, the “Blood glucose 9 w after administration” value (obese hyperglycemia mice; ig 130 mg/kg once a day) was 33.5 ± 5.4 mmol/L, the “Blood glucose 12 w after administration” value (obese hyperglycemia mice; ig 130 mg/kg once a day) was 30.1 ± 4.5 mmol/L and the “Body weight 6 w after administration” value (obese hyperglycemia mice; ig 130 mg/kg once a day) was 35.8 ± 1.5 g. For the same molecule, the “Body weight 9 w after administration” value (obese hyperglycemia mice; ig 130 mg/kg once a day) was 39.5 ± 1.4 g, the “Body weight 12 w after administration” value (obese hyperglycemia mice; ig 130 mg/kg once a day) was 41.1 ± 1.5 g and the absorbance value (mice [1]) was 0.494 ± 0.134. For the same molecule, the “net weight of granulation” value (rats [2]) was 15.87 ± 3.31 mg, the Propulsive rate (mice [3]) was 51.69 ± 7.1 % and the “Rating of adhesion degree 0” value (rats [4]; number of 12 rats with completely no adhesion) was 1. The “Rating of adhesion degree III” value (rats [4]; number of 12 rats with more than two adhering zones) was 3, the “Rating of adhesion degree I” value (rats [4]; number of 12 rats with one adhering zone) was 4 and the “Rating of adhesion degree IV” value (rats [4]; number of 12 rats with organs adhering to abdominal wall directly) was 2. The “Rating of adhesion degree II” value (rats [4]; number of 12 rats with two adhering zones) was 2, the inhibition rate (mice [5]) was 29.8% and the swelling degree of auricle (mice [5]) was 12.5 ± 2.2 mg. The “Net weight of granulation” value (rats [6]) was 15.23 ± 2.99Δ Δ mg, the Inhibiting rate (mice [7]) was 37.7% and the Times of writhing (mice [7]) was 20.1 ± 8.9 per/20 min.
